Measurements as given in patent US8110687B2, “Bicyclic compounds with kinase inhibitory activity” (Millennium Pharmaceuticals, Inc., priority 2005, dated 2012).

The molecules below were run on phospho-ERK formation (Raf kinase activity) in A375 cells (assay: Phospho-ERK ELISA assay). Settings: Homo sapiens, A-375, 3 h, 3 hours with inhibitor, read-out: IC50, inhibition of the formation of phospho-ERK.
Type: cell-based
Procedure: Inhibition of Raf kinase activity in whole cell systems can be assessed by determining the decrease in phosphorylation of Raf kinase substrates. Any known Raf kinase substrate can be used to measure inhibition of Raf kinase activity in a whole cell system.
Medium was removed, and cells were incubated with Raf kinase inhibitors for 3 hours at 37° C. Medium was removed, and cells were fixed with 4% paraformaldehyde for 15 minutes at room temperature.
Methanol was added for 15 min. Cells were removed and blocked with 10% sheep serum and 1% BSA in PBS overnight at 4° C. Cells were incubated with anti-p44/42MAPK antibody (1:100, Cell Signaling Technologies, #9101L) (20 μL/well) for one hour at room temperature. After washing with PBS three times, cells were stained with anti-rabbit horseradish peroxidase-linked antibody from donkey (1:100, Amersham Bioscience #NA934V) for 1 hour at room temperature. Cells were washed three times with 0.5% Tween-20 in PBS and twice with PBS. 3,3′, 5,5′-Tetramethylbenzidine (TMB) liquid substrate system (Sigma, #T8665) (50 μL/well) was added, and cells were incubated for 30-45 minutes at room temperature. Optical density was read at 650 nm. Cells were then washed 3-5 times with PBS to remove color solution. Results were normalized for the protein content in each well using a BCA protein assay kit (Pierce).

SMILES	IC50 [µM]
CN1Cc2ccc(Oc3ccnc(C4=NCCN4)c3)cc2CC1C(=O)Nc1ccc(Cl)c(C(F)(F)F)c1 (centres unmarked) [Compound I-11, N-[4-Chloro-3-(trifluoromethyl)phenyl]-6-{[2-(4,5-dihydro-1H-imidazol-2-yl)pyridin-4-yl]oxy}-2-methyl-1,2,3,4-tetrahydroisoquinoline-3-carboxamide]	≤ 25
O=C(Nc1ccc(Cl)c(C(F)(F)F)c1)C1CCc2cccc(Oc3ccnc(C4=NCCN4)c3)c2C1 (centres unmarked) [Compound I-21, N-[4-chloro-3-(trifluoromethyl)phenyl]-8-{[2-(4,5-dihydro-1H-imidazol-2-yl)pyridin-4-yl]oxy}-1,2,3,4-tetrahydronaphthalene-2-carboxamide]	≤ 25
CNC(=O)c1cc(Oc2ccc3c(c2)CC(C(=O)Nc2cccc(C(C)(C)C)c2)CC3)ccn1 (centres unmarked) [Compound I-23, 4-[(7-{[(3-tert-butylphenyl)amino]carbonyl}-5,6,7,8-tetrahydronaphthalen-2-yl)oxy]-N-methylpyridine-2-carboxamide]	≤ 25
CNC(=O)c1cc(Oc2ccc3c(c2)CC(C(=O)Nc2ccc(CN)c(C(F)(F)F)c2)CC3)ccn1 (centres unmarked) [Compound I-28, 4-{[7-({[4-(aminomethyl)-3-(trifluoromethyl)phenyl]amino}carbonyl)-5,6,7,8-tetrahydronaphthalen-2-yl]oxy}-N-methylpyridine-2-carboxamide]	≤ 25
CNC(=O)c1cc(Oc2ccc3c(c2)CC(C(=O)Nc2ccc(CCN)cc2)CC3)ccn1 (centres unmarked) [Compound I-29, 4-{[7-({[4-(2-aminoethyl)phenyl]amino}carbonyl)-5,6,7,8-tetrahydronaphthalen-2-yl]oxy}-N-methylpyridine-2-carboxamide]	≤ 25
O=C(Nc1ccc(Cl)c(C(F)(F)F)c1)c1cc2cc(Oc3ccnc(C4=NCCN4)c3)ccc2cn1 [Compound I-35, N-[4-chloro-3-(trifluoromethyl)phenyl]-6-{[2-(4,5-dihydro-1H-imidazol-2-yl)pyridin-4-yl]oxy}isoquinoline-3-carboxamide]	≤ 25
CNC(=O)c1cc(Oc2ccc3c(c2)CC(C(=O)Nc2ccc(CN)cc2)CC3)ccn1 (centres unmarked) [Compound I-42, 4-{[7-({[4-(aminomethyl)phenyl]amino}carbonyl)-5,6,7,8-tetrahydronaphthalen-2-yl]oxy}-N-methylpyridine-2-carboxamide]	≤ 25
O=C(Nc1ccc(Cl)c(C(F)(F)F)c1)c1ccc2ccc(Oc3ccnc(C4=NCCN4)c3)cc2n1 [Compound I-45, N-[4-chloro-3-(trifluoromethyl)phenyl]-7-{[2-(4,5-dihydro-1H-imidazol-2-yl)pyridin-4-yl]oxy}quinoline-2-carboxamide]	≤ 25
O=C(Nc1ccc(Cl)c(C(F)(F)F)c1)c1ccc2ccc(Oc3ccnc(C4=NCCN4)c3)cc2c1 [Compound I-46, N-[4-chloro-3-(trifluoromethyl)phenyl]-7-{[2-(4,5-dihydro-1H-imidazol-2-yl)pyridin-4-yl]oxy}-2-naphthamide]	≤ 25
O=C(Nc1cc(OC2CCNCC2)cc(C(F)(F)F)c1)c1ccc2ccc(Oc3ccnc(C4=NCCN4)c3)cc2c1 [Compound I-48, 7-{[2-(4,5-dihydro-1H-imidazol-2-yl)pyridin-4-yl]oxy}-N-[3-(piperidin-4-yloxy)-5-(trifluoromethyl)phenyl]-2-naphthamide]	≤ 25
CC(C)(C)c1cccc(NC(=O)c2ccc3ccc(Oc4ccnc(C5=NCCN5)c4)cc3n2)c1 [Compound I-50, N-(3-tert-butylphenyl)-7-{[2-(4,5-dihydro-1H-imidazol-2-yl)pyridin-4-yl]oxy}quinoline-2-carboxamide]	≤ 25
CNC(=O)c1cc(Oc2ccc3c(c2)CC(C(=O)Nc2cccc(CN)c2)CC3)ccn1 (centres unmarked) [Compound I-51, 4-{[7-({[3-(aminomethyl)phenyl]amino}carbonyl)-5,6,7,8-tetrahydronaphthalen-2-yl]oxy}-N-methylpyridine-2-carboxamide]	≤ 25
O=C(Nc1ccc(Cl)c(C(F)(F)F)c1)C1Cc2cc(Oc3ccnc(C4=NCCN4)c3)ccc2CN1 (centres unmarked) [Compound I-54, N-[4-chloro-3-(trifluoromethyl)phenyl]-6-{[2-(4,5-dihydro-1H-imidazol-2-yl)pyridin-4-yl]oxy}-1,2,3,4-tetrahydroisoquinoline-3-carboxamide]	≤ 25
CC(C)(C)c1cccc(NC(=O)c2ccc3ccc(Oc4ccnc(C(=N)N5CCCC5)c4)cc3c2)c1 [Compound I-93, N-(3-tert-butylphenyl)-7-({2-[imino(pyrrolidin-1-yl)methyl]pyridin-4-yl}oxy)-2-naphthamide]	≤ 25
CC(C)(C)c1cccc(NC(=O)c2ccc3ccc(Oc4ccnc(C(=N)N5CCOCC5)c4)cc3c2)c1 [Compound I-99, N-(3-tert-butylphenyl)-7-({2-[imino(morpholin-4-yl)methyl]pyridin-4-yl}oxy)-2-naphthamide]	≤ 25
CNC(=O)c1cc(Oc2ccc3c(c2)CC(C(=O)Nc2ccc(CN4CCCC4)c(C(F)(F)F)c2)CC3)ccn1 (centres unmarked) [Compound I-129, N-methyl-4-{[7-({[4-(pyrrolidin-1-ylmethyl)-3-(trifluoromethyl)phenyl]amino}carbonyl)-5,6,7,8-tetrahydronaphthalen-2-yl]oxy}pyridine-2-carboxamide]	≤ 25
CN(C)CC(=O)Nc1cc(Oc2ccc3ccc(C(=O)Nc4ccc(Cl)c(C(F)(F)F)c4)cc3c2)ccn1 [Compound I-138, N-[4-chloro-3-(trifluoromethyl)phenyl]-7-[(2-{[(dimethylamino)acetyl]amino}pyridin-4-yl)oxy]-2-naphthamide]	≤ 25
Nc1cc(Oc2ccc3ccc(C(=O)Nc4cc(OCCN5CCCC5)cc(C(F)(F)F)c4)cc3c2)ccn1 [Compound I-142, 7-[(2-aminopyridin-4-yl)oxy]-N-[3-(2-pyrrolidin-1-ylethoxy)-5-(trifluoromethyl)phenyl]-2-naphthamide]	≤ 25
CC(C)(C)c1cccc(NC(=O)C2CCc3ccc(Oc4ccnc(-c5nc(C(=O)O)c[nH]5)c4)cc3C2)c1 (centres unmarked) [Compound I-155, 2-{4-[(7-{[(3-tert-Butylphenyl)amino]carbonyl}-5,6,7,8-tetrahydronaphthalen-2-yl)oxy]pyridin-2-yl}-1H-imidazole-4-carboxylic acid]	≤ 25
N#Cc1ccc(NC(=O)c2ccc3ccc(Oc4ccnc(N)c4)cc3c2)cc1C(F)(F)F [Compound I-158, 7-[(2-aminopyridin-4-yl)oxy]-N-[4-cyano-3-(trifluoromethyl)phenyl]-2-naphthamide]	≤ 25
CNC(=O)c1cc(Oc2ccc3ncc(C(=O)Nc4ccc(CN)c(C(F)(F)F)c4)cc3c2)ccn1 [Compound I-161, N-[4-(aminomethyl)-3-(trifluoromethyl)phenyl]-6-({2-[(methylamino)carbonyl]pyridin-4-yl}oxy)quinoline-3-carboxamide]	≤ 25
Nc1cc(Oc2ccc3ccc(C(=O)Nc4ccc(Cl)c(C(F)(F)F)c4)cc3c2)ccn1 [Compound I-162, 7-[(2-aminopyridin-4-yl)oxy]-N-[4-chloro-3-(trifluoromethyl)phenyl]-2-naphthamide]	≤ 25
COC(=O)NCc1cc(Oc2ccc3c(c2)CC(C(=O)Nc2cc(CN)cc(C(F)(F)F)c2)CC3)ccn1 (centres unmarked) [Compound I-192, methyl [(4-{[7-({[3-(aminomethyl)-5-(trifluoromethyl)phenyl]amino}carbonyl)-5,6,7,8-tetrahydronaphthalen-2-yl]oxy}pyridin-2-yl)methyl]carbamate]	≤ 25
CC(C)(C)c1cccc(NC(=O)C2CCc3ccc(Oc4ccnc(C(=N)N5CCCC5)c4)cc3C2)c1 (centres unmarked) [Compound I-194, N-(3-tert-butylphenyl)-7-({2-[imino(pyrrolidin-1-yl)methyl]pyridin-4-yl}oxy)-1,2,3,4-tetraydronaphthalene-2-carboxamide]	≤ 25
CC(=O)NCc1cc(Oc2ccc3c(c2)CC(C(=O)Nc2cc(CN)cc(C(F)(F)F)c2)CC3)ccn1 (centres unmarked) [Compound I-203, 7-({2-[(acetylamino)methyl]pyridin-4-yl}oxy)-N-[3-(aminomethyl)-5-(trifluoromethyl)phenyl]-1,2,3,4-tetrahydronaphthalene-2-carboxamide]	≤ 25
NCc1cc(NC(=O)C2CCc3ccc(Oc4ccnc(-n5ccnc5)c4)cc3C2)cc(C(F)(F)F)c1 (centres unmarked) [Compound I-205, N-[3-(aminomethyl)-5-(trifluoromethyl)phenyl]-7-{[2-(1H-imidazol-1-yl)pyridin-4-yl]oxy}-1,2,3,4-tetrahydronaphthalene-2-carboxamide]	≤ 25
NCc1cc(NC(=O)C2CCc3ccc(Oc4ccnc(-c5cnco5)c4)cc3C2)cc(C(F)(F)F)c1 (centres unmarked) [Compound I-210, N-[3-(aminomethyl)-5-(trifluoromethyl)phenyl]-7-{[2-(1,3-oxazol-5-yl)pyridin-4-yl]oxy}-1,2,3,4-tetrahydronaphthalene-2-carboxamide]	≤ 25
CC(C)NC(=O)c1cc(Oc2ccc3c(c2)CC(C(=O)Nc2cc(CN)cc(C(F)(F)F)c2)CC3)ccn1 (centres unmarked) [Compound I-229, 4-{[7-({[3-(aminomethyl)-5-(trifluoromethyl)phenyl]amino}carbonyl)-5,6,7,8-tetrahydronaphthalen-2-yl]oxy}-N-isopropylpyridine-2-carboxamide]	≤ 25
CC(C)(C)c1cccc(NC(=O)C2CCc3ccc(Oc4ccnc(N)c4)cc3C2)c1 (centres unmarked) [Compound I-235, 7-[(2-aminopyridin-4-yl)oxy]-N-(3-tert-butylphenyl)-1,2,3,4-tetrahydronaphthalene-2-carboxamide]	≤ 25
